Reference: the NIST ThermoML archive (doi:10.1021/je200811n)
Where “and” joins values, the source holds several entries; their conditions need not be identical. Equal entries are not always repeated.

Settings: Hot wire method

F/C=C/C(F)(F)F [trans-1,3,3,3-tetrafluoropropene]
Settings	thermal conductivity
342.2 K, 297 kPa, Gas	0.01731 W/m/K
342.25 K, 1250 kPa, Gas	0.01811 W/m/K
342.26 K, 194 kPa, Gas	0.01748 W/m/K
342.26 K, 1414 kPa, Gas	0.01822 W/m/K
342.27 K, 20059 kPa, Liquid	0.07476 W/m/K
342.3 K, 21979 kPa, Liquid	0.07611 W/m/K
342.32 K, 16372 kPa, Liquid	0.07244 W/m/K
342.33 K, 1047 kPa, Gas	0.01784 W/m/K
342.33 K, 1048 kPa, Gas	0.01781 W/m/K
342.36 K, 669 kPa, Gas	0.01728 W/m/K
342.37 K, 670 kPa, Gas	0.01729 W/m/K
342.38 K, 866 kPa, Gas	0.01767 W/m/K
342.39 K, 867 kPa, Gas	0.01765 W/m/K
342.4 K, 8117 kPa, Liquid	0.06658 W/m/K
342.42 K, 450 kPa, Gas	0.01758 W/m/K
342.43 K, 451 kPa, Gas	0.01761 W/m/K
342.43 K, 12120 kPa, Liquid	0.06971 W/m/K
342.43 K, 21977 kPa, Liquid	0.07598 W/m/K
342.44 K, 97 kPa, Gas	0.01786 W/m/K
342.46 K, 8190 kPa, Liquid	0.06655 W/m/K
342.46 K, 16363 kPa, Liquid	0.07249 W/m/K
342.55 K, 1411 kPa, Gas	0.01807 W/m/K
342.56 K, 296 kPa, Gas	0.01736 W/m/K and 0.01734 W/m/K
342.56 K, 1249 kPa, Gas	0.01814 W/m/K
342.56 K, 8113 kPa, Liquid	0.06632 W/m/K
342.58 K, 12118 kPa, Liquid	0.06949 W/m/K
342.59 K, 1260 kPa, Gas	0.01776 W/m/K
342.64 K, 1045 kPa, Gas	0.01782 W/m/K
342.64 K, 1046 kPa, Gas	0.01782 W/m/K
342.65 K, 194 kPa, Gas	0.01771 W/m/K
342.71 K, 668 kPa, Gas	0.01733 W/m/K
342.71 K, 864 kPa, Gas	0.01769 W/m/K
342.72 K, 865 kPa, Gas	0.01767 W/m/K
342.78 K, 20073 kPa, Liquid	0.07479 W/m/K
342.79 K, 450 kPa, Gas	0.01763 W/m/K
342.79 K, 451 kPa, Gas	0.01763 W/m/K
342.81 K, 21978 kPa, Liquid	0.07589 W/m/K
342.85 K, 97 kPa, Gas	0.01784 W/m/K
342.85 K, 16357 kPa, Liquid	0.07241 W/m/K
342.94 K, 296 kPa, Gas	0.0174 W/m/K and 0.01739 W/m/K
342.96 K, 20077 kPa, Liquid	0.07456 W/m/K
342.97 K, 1044 kPa, Gas	0.01783 W/m/K
342.97 K, 21978 kPa, Liquid	0.07571 W/m/K
342.98 K, 1044 kPa, Gas	0.01784 W/m/K
342.98 K, 12116 kPa, Liquid	0.06939 W/m/K
343.02 K, 16352 kPa, Liquid	0.07225 W/m/K
343.05 K, 862 kPa, Gas	0.01767 W/m/K
343.05 K, 863 kPa, Gas	0.0177 W/m/K
343.06 K, 194 kPa, Gas	0.01766 W/m/K
343.07 K, 666 kPa, Gas	0.01736 W/m/K
343.08 K, 667 kPa, Gas	0.01735 W/m/K
343.16 K, 1405 kPa, Gas	0.01819 W/m/K
343.25 K, 1255 kPa, Gas	0.01787 W/m/K
343.28 K, 96 kPa, Gas	0.01785 W/m/K
343.32 K, 1043 kPa, Gas	0.01783 W/m/K
343.35 K, 296 kPa, Gas	0.01753 W/m/K
343.48 K, 194 kPa, Gas	0.01763 W/m/K

Settings	thermal conductivity [W/m/K]
343.15 K, Liquid	0.05993
